Source: article PMC4839570, “Novel Anthra[1,2-c][1,2,5]Thiadiazole-6,11-Diones as Promising Anticancer Lead Compounds: Biological Evaluation, Characterization & Molecular Targets Determination” (PLoS ONE, 2016)
Where two headings read alike, the source gives them in different places.

Tests used:
[1] = system: OVCAR-4; experiment: NCI-60 cytotoxicity screen; assay type: cell-based
[2] = system: U251; experiment: JFCR-39 cytotoxicity screen; assay type: cell-based
[3] = system: OVCAR-3; conditions: five-dose
[4] = system: SNB-19; experiment: NCI-60 cytotoxicity screen; assay type: cell-based
[5] = system: NCI 60 human cancer cell lines; experiment: NCI-60 screen, means, ranges and selectivity over panels; assay type: cell-based; conditions: for GI50: Homo sapiens
Description: Both NSC745885 and NSC757963 satisfied the pre-determined threshold inhibition criteria of the NCI-60 One-Dose Screening, so they were tested against the panels of 60 cancer cell lines of NCI (NCI-60) and 39 cancer cell lines of JFCR (JFCR-39), each cell line was tested at five small doses of our compounds. Results are expressed as the 50% growth inhibition concentration (GI50), the 50% lethal concentration (LC50) and the total growth inhibition (TGI), compared to the values of untreated control cells.
To characterize the selectivity of NSC745885 and NSC757963 further among the different types of cancer, we determined their selectivity ratios towards each cell line subpanel used in the cytotoxicity experiments. […] The promising activity of this compound is evident from the small mean GI50 values. […] The strongest activity was towards the leukemia subpanel and the least one was towards the colon cancer subpanel. […] The strongest activity was towards the melanoma subpanel and the least one was towards the colon cancer subpanel.
All cell lines were published before.

[6] = system: HT29; experiment: NCI-60 cytotoxicity screen; assay type: cell-based
[7] = system: SF-268; experiment: NCI-60 cytotoxicity screen; assay type: cell-based
[8] = system: SK-MEL-28; experiment: NCI-60 cytotoxicity screen; assay type: cell-based
[9] = system: 786-0; experiment: NCI-60 cytotoxicity screen; assay type: cell-based; conditions: for GI50: Homo sapiens
[10] = Homo sapiens, Fig 7, read-out: mean log10 of the GI50 values (converted)
[11] = Homo sapiens, five-dose, read-out: GI50
[12] = Homo sapiens, five-dose, read-out: LC50 (the source's name)

Compound: O=C1c2ccccc2C(=O)c2c1ccc1nsnc21 [NSC745885, anthra[1,2-c][1,2,5]thiadiazole-6,11-dione]
- GI50 [1, 10]: 0.575 µM
- GI50 [1, 11]: 0.65 µM
- CC50 [1, 12]: 5.57 µM
- inhibition at 10 µM ([1]; Homo sapiens, single dose 10 μM, read-out: growth inhibition): 94.4%
- TGI ([1]; five-dose): 2.17 µM
- TGI [2]: 3.1 µM
- GI50 ([2]; Homo sapiens, U-251): 1.6 µM
- CC50 ([2]; Homo sapiens, U-251, read-out: LC50 (the source's name)): 5.8 µM
- TGI [3]: 2.46 µM
- GI50 [4, 10]: 2.04 µM
- GI50 [4, 11]: 2.28 µM
- CC50 [4, 12]: 26 µM
- TGI ([4]; five-dose): 5.82 µM
- selectivity ratios of the NCI subpanels other than leukemia [5]: less than 3
- GI50 ([5]; Fig 7, read-out: MG-MID of mean log10 GI50 (converted)): 2.4 µM
- GI50 ([5]; NCI Breast Cancer, read-out: Mean GI50 of subpanel): 1.54 µM
- GI50 ([5]; NCI CNS Cancer, read-out: Mean GI50 of subpanel): 1.91 µM
- GI50 ([5]; NCI Colon Cancer, read-out: Mean GI50 of subpanel): 7.23 µM
- GI50 ([5]; NCI Leukemia, read-out: Mean GI50 of subpanel): 0.966 µM
- GI50 ([5]; NCI Melanoma, read-out: Mean GI50 of subpanel): 1.65 µM
- GI50 ([5]; NCI Non-Small Cell Lung Cancer, read-out: Mean GI50 of subpanel): 5.37 µM
- GI50 ([5]; NCI Ovarian Cancer, read-out: Mean GI50 of subpanel): 2.24 µM
- GI50 ([5]; NCI Prostate Cancer, read-out: Mean GI50 of subpanel): 2.45 µM
- GI50 ([5]; NCI Renal Cancer, read-out: Mean GI50 of subpanel): 3.65 µM
- GI50 ([5]; all NCI subpanels, read-out: mean GI50 values of the NCI 60 subpanels, range): 0.97 to 7.2 µM
- GI50 ([5]; equivalent to MID, read-out: Mean GI50 of all NCI-60 cell line panels): 3.23 µM
- GI50 ([5]; five-dose, read-out: NCI-60 GI50 values, range over cell lines): 0.16 to 17.4 µM
- Selectivity ratio ([5]; NCI Breast Cancer): 2.1
- Selectivity ratio ([5]; NCI CNS Cancer): 1.69
- Selectivity ratio ([5]; NCI Colon Cancer): 0.45
- Selectivity ratio ([5]; NCI Leukemia): 3.35
- Selectivity ratio ([5]; NCI Melanoma): 1.96
- Selectivity ratio ([5]; NCI Non-Small Cell Lung Cancer): 0.6
- Selectivity ratio ([5]; NCI Ovarian Cancer): 1.44
- Selectivity ratio ([5]; NCI Prostate Cancer): 1.32
- Selectivity ratio ([5]; NCI Renal Cancer): 0.89
- GI50 ([6]; Homo sapiens, HT-29, Fig 7, read-out: mean log10 of the GI50 values (converted)): 6.03 µM
- GI50 ([6]; Homo sapiens, HT-29, five-dose, read-out: GI50): 13.4 µM
- CC50 ([6]; Homo sapiens, HT-29, five-dose, read-out: LC50 (the source's name)): > 100 µM
- TGI ([6]; five-dose): 50.4 µM
- GI50 [7, 10]: 2.75 µM
- GI50 [7, 11]: 2.17 µM
- CC50 [7, 12]: 27.7 µM
- TGI ([7]; five-dose): 5.77 µM
- GI50 [8, 10]: 4.27 µM
- GI50 [8, 11]: 1.85 µM
- CC50 [8, 12]: 6.18 µM
- TGI ([8]; five-dose): 3.38 µM
- TGI ([9]; 786–0, five-dose): 19.3 µM
- GI50 ([9]; 786-0, Fig 7, read-out: mean log10 of the GI50 values (converted)): 4.9 µM
- GI50 ([9]; 786–0, five-dose, read-out: GI50): 6.17 µM
